# Source: ChEMBL document CHEMBL1201861, “Genomics of Drug Sensitity in Cancer screening data, Wellcome Trust Sanger Institute”
# Legend:
# Experiment in all cases: cells
# OAW-42 = assay type: functional, cell-based, Homo sapiens; conditions: Homo sapiens, OAW-42;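 also: growth inhibition of OAW-42 cells, read out with a cell viability assay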
# Description: SANGER: Inhibition of human OAW-42 cell growth in a cell viability assay.
# CAL-62 = assay type: functional, cell-based, Homo sapiens; conditions: Homo sapiens, CAL-62;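 also: growth inhibition of CAL-62 cells, read out with a cell viability assay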
# Description: SANGER: Inhibition of human CAL-62 cell growth in a cell viability assay.
# IST-SL1 = assay type: functional, cell-based, Homo sapiens; conditions: Homo sapiens, IST-SL1;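 also: growth inhibition of human IST-SL1 cells, read out with a cell viability assay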
# Description: SANGER: Inhibition of human IST-SL1 cell growth in a cell viability assay.
# KARPAS-299 = assay type: functional, cell-based; conditions: Homo sapiens
# Description: SANGER: Inhibition of human KARPAS-299 cell growth in a cell viability assay.
# JVM-2 = assay type: functional, cell-based; conditions: Homo sapiens;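 also: growth inhibition of JVM-2 cells determined by a cell viability assay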
# Description: SANGER: Inhibition of human JVM-2 cell growth in a cell viability assay.
# KYSE-510 = assay type: functional, cell-based, Homo sapiens; conditions: Homo sapiens, KYSE-510;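 also: cell viability readout used to measure how strongly growth of the cell line is suppressed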
# Description: SANGER: Inhibition of human KYSE-510 cell growth in a cell viability assay.
# DBTRG-05MG = assay type: functional, cell-based, Homo sapiens; conditions: Homo sapiens, DBTRG-05MG;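 also: cell viability assay measuring growth inhibition of human DBTRG-05MG cells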
# Description: SANGER: Inhibition of human DBTRG-05MG cell growth in a cell viability assay.
# SK-N-AS = assay type: functional, cell-based, Homo sapiens; conditions: Homo sapiens, SK-N-AS;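 also: growth inhibition of human SK-N-AS cells, measured with a cell viability assay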
# Description: SANGER: Inhibition of human SK-N-AS cell growth in a cell viability assay.
# NCI-H650 = assay type: functional, cell-based, Homo sapiens; conditions: Homo sapiens, NCI-H650;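 also: growth inhibition of NCI-H650 cells, read out by a viability assay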
# Description: SANGER: Inhibition of human NCI-H650 cell growth in a cell viability assay.
# TE-12 = assay type: functional, cell-based; conditions: Homo sapiens;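 also: growth inhibition of TE-12 cells, read out by a cell viability assay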
# Description: SANGER: Inhibition of human TE-12 cell growth in a cell viability assay.
# SK-MEL-2 = assay type: functional, cell-based, Homo sapiens; conditions: Homo sapiens, SK-MEL-2;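 also: growth inhibition of human SK-MEL-2 cells measured with a cell viability assay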
# Description: SANGER: Inhibition of human SK-MEL-2 cell growth in a cell viability assay.
# D-542MG = assay type: functional, cell-based, Homo sapiens; conditions: Homo sapiens, D-542MG
# Description: SANGER: Inhibition of human D-542MG cell growth in a cell viability assay.
# DEL = assay type: functional, cell-based; conditions: Homo sapiens;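 also: growth inhibition of the human DEL cell line, read out with a cell viability assay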
# Description: SANGER: Inhibition of human DEL cell growth in a cell viability assay.
# SH-4 = assay type: functional, cell-based, Homo sapiens; conditions: Homo sapiens, SH-4;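 also: growth inhibition of SH-4 cells, read out with a cell viability assay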
# Description: SANGER: Inhibition of human SH-4 cell growth in a cell viability assay.
# SW837 = assay type: functional, cell-based, Homo sapiens; conditions: Homo sapiens, SW837;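 also: growth inhibition of SW837 cells, determined with a cell viability assay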
# Description: SANGER: Inhibition of human SW837 cell growth in a cell viability assay.
# GMS-10 = assay type: functional, cell-based, Homo sapiens; conditions: Homo sapiens, GMS-10;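 also: growth inhibition of GMS-10 cells, read out as cell viability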
# Description: SANGER: Inhibition of human GMS-10 cell growth in a cell viability assay.
# FTC-133 = assay type: functional, cell-based, Homo sapiens; conditions: Homo sapiens, FTC-133
# LS-1034 = assay type: functional, cell-based, Homo sapiens; conditions: Homo sapiens, LS-1034
# Description: SANGER: Inhibition of human LS-1034 cell growth in a cell viability assay.
# COR-L23 = assay type: functional, cell-based, Homo sapiens; conditions: Homo sapiens, COR-L23;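 also: cell viability assay measuring how strongly compounds suppress growth of COR-L23 cells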
# Description: SANGER: Inhibition of human COR-L23 cell growth in a cell viability assay.
# NCI-H23 = assay type: functional, cell-based, Homo sapiens; conditions: Homo sapiens, NCI-H23;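 also: cell viability assay measuring growth inhibition of NCI-H23 cells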
# HT-3 = assay type: functional, cell-based, Homo sapiens; conditions: Homo sapiens, HT-3;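 also: growth inhibition measured with a cell viability readout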
# Description: SANGER: Inhibition of human HT-3 cell growth in a cell viability assay.
# LU-134-A = assay type: functional, cell-based; conditions: Homo sapiens
# Description: SANGER: Inhibition of human LU-134-A cell growth in a cell viability assay.
# U-251 = assay type: functional, cell-based, Homo sapiens; conditions: Homo sapiens, U-251;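 also: growth inhibition of human U-251 cells, read out through a cell viability assay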
# Description: SANGER: Inhibition of human U251 cell growth in a cell viability assay.
# MZ1-PC = assay type: functional, cell-based, Homo sapiens; conditions: Homo sapiens, MZ1-PC;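 also: cell viability assay measuring growth inhibition of human MZ1-PC cells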
# Description: SANGER: Inhibition of human MZ1-PC cell growth in a cell viability assay.
# TE-11 = assay type: functional, cell-based, Homo sapiens; conditions: Homo sapiens, TE-11;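 also: growth inhibition of human TE-11 cells, read out by a cell viability assay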
# Description: SANGER: Inhibition of human TE-11 cell growth in a cell viability assay.
# BHT-101 = assay type: functional, cell-based, Homo sapiens; conditions: Homo sapiens, BHT-101
# MN-60 = assay type: functional, cell-based; conditions: Homo sapiens;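 also: growth inhibition of the MN-60 cell line, determined with a cell viability assay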
# Description: SANGER: Inhibition of human MN-60 cell growth in a cell viability assay.
# KOSC-2 = assay type: functional, cell-based, Homo sapiens; conditions: Homo sapiens, KOSC-2;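 also: growth inhibition of KOSC-2 cells, read out by a cell viability assay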
# NCI-H2228 = assay type: functional, cell-based, Homo sapiens; conditions: Homo sapiens, NCI-H2228;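 also: growth inhibition of human NCI-H2228 cells, read out by a cell viability assay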
# Description: SANGER: Inhibition of human NCI-H2228 cell growth in a cell viability assay.
# HT-144 = assay type: functional, cell-based, Homo sapiens; conditions: Homo sapiens, HT-144
# Description: SANGER: Inhibition of human HT-144 cell growth in a cell viability assay.
# MZ2-MEL = assay type: functional, cell-based, Homo sapiens; conditions: Homo sapiens, MZ2-MEL;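 also: growth inhibition of MZ2-MEL cells read out with a cell viability assay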
# Description: SANGER: Inhibition of human MZ2-MEL cell growth in a cell viability assay.
# Capan-2 = assay type: functional, cell-based, Homo sapiens; conditions: Homo sapiens, Capan-2;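 also: Capan-2 cell growth inhibition, read out with a viability assay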
# Description: SANGER: Inhibition of human Capan-2 cell growth in a cell viability assay.
# KMOE-2 = assay type: functional, cell-based; conditions: Homo sapiens;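 also: growth inhibition of human KMOE-2 cells, read out with a cell viability assay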
# Description: SANGER: Inhibition of human KMOE-2 cell growth in a cell viability assay.
# LC-2-ad = assay type: functional, cell-based, Homo sapiens; conditions: Homo sapiens, LC-2-ad;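 also: growth inhibition of human LC-2-ad cells, read out with a cell viability assay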
# Description: SANGER: Inhibition of human LC-2-ad cell growth in a cell viability assay.
# IST-MEL1 = assay type: functional, cell-based, Homo sapiens; conditions: Homo sapiens, IST-MEL1;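 also: growth inhibition of the cell line, read out with a cell viability assay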
# Description: SANGER: Inhibition of human IST-MEL1 cell growth in a cell viability assay.
# OE33 = assay type: functional, cell-based, Homo sapiens; conditions: Homo sapiens, OE33;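 also: growth inhibition of human OE33 cells, measured by a cell viability assay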
# Description: SANGER: Inhibition of human OE33 cell growth in a cell viability assay.
# MC116 = assay type: functional, cell-based; conditions: Homo sapiens;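 also: growth inhibition of MC116 cells, read out with a cell viability assay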
# Description: SANGER: Inhibition of human MC116 cell growth in a cell viability assay.
# MPP-89 = assay type: functional, cell-based, Homo sapiens; conditions: Homo sapiens, MPP-89;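 also: growth inhibition of human MPP-89 cells, read out with a cell viability assay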
# Description: SANGER: Inhibition of human MPP-89 cell growth in a cell viability assay.
# LCLC-103H cell line = assay type: functional, cell-based, Homo sapiens; conditions: Homo sapiens, LCLC-103H
# Description: SANGER: Inhibition of human LCLC-103H cell growth in a cell viability assay.
# KGN = assay type: functional, cell-based, Homo sapiens; conditions: Homo sapiens, KGN;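 also: growth inhibition of KGN cells, read out with a cell viability assay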
# PANC-08-13 = assay type: functional, cell-based, Homo sapiens; conditions: Homo sapiens, PANC-08-13;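 also: cell growth inhibition, measured with a cell viability assay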
# Description: SANGER: Inhibition of human PANC-08-13 cell growth in a cell viability assay.
# SW1710 = assay type: functional, cell-based, Homo sapiens; conditions: Homo sapiens, SW1710;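 also: growth inhibition of SW1710 cells, determined with a cell viability assay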
# Description: SANGER: Inhibition of human SW1710 cell growth in a cell viability assay.
# IGROV-1 = assay type: functional, cell-based, Homo sapiens; conditions: Homo sapiens, IGROV-1;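 also: reduction of IGROV-1 cell growth, read out with a viability assay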
# Description: SANGER: Inhibition of human IGROV-1 cell growth in a cell viability assay.
# NCI-H1623 = assay type: functional, cell-based, Homo sapiens; conditions: Homo sapiens, NCI-H1623;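 also: cell viability assay used as the read-out for growth inhibition of NCI-H1623 cells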
# Description: SANGER: Inhibition of human NCI-H1623 cell growth in a cell viability assay.
# SK-MEL-1 = assay type: functional, cell-based; conditions: Homo sapiens;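 also: growth inhibition of human SK-MEL-1 cells, read out by a cell viability assay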
# Description: SANGER: Inhibition of human SK-MEL-1 cell growth in a cell viability assay.
# HT-29 = assay type: functional, cell-based, Homo sapiens; conditions: Homo sapiens, HT-29;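 also: growth inhibition of human HT-29 cells, read out by a cell viability assay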
# Description: SANGER: Inhibition of human HT-29 cell growth in a cell viability assay.
# LOX IMVI = assay type: functional, cell-based; conditions: Homo sapiens
# Description: SANGER: Inhibition of human LOXIMVI cell growth in a cell viability assay.
# UO-31 = assay type: functional, cell-based; conditions: Homo sapiens;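 also: cell viability assay measuring inhibition of cell growth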
# Description: SANGER: Inhibition of human U031 cell growth in a cell viability assay.
# KYSE-70 cell line = assay type: functional, cell-based, Homo sapiens; conditions: Homo sapiens, KYSE-70;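 also: cell viability assay read-out, with IC50 expressing suppression of KYSE-70 cell growth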
# Description: SANGER: Inhibition of human KYSE-70 cell growth in a cell viability assay.
# NTERA-2-cl-D1 = assay type: functional, cell-based, Homo sapiens; conditions: Homo sapiens, NTERA-2-cl-D1;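 also: inhibition of cell growth, measured with a cell viability assay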
# Description: SANGER: Inhibition of human NTERA-S-cl-D1 cell growth in a cell viability assay.
# HuP-T3 = assay type: functional, cell-based, Homo sapiens; conditions: Homo sapiens, HuP-T3;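 also: HuP-T3 cell growth inhibition, read out with a cell viability assay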
# Description: SANGER: Inhibition of human HuP-T3 cell growth in a cell viability assay.
structure (smiles),measurement,setting,value
COC(=O)CNC(=O)C(=O)OC,IC50,OAW-42,425 µM
same,IC50,CAL-62,1050 µM
same,IC50,IST-SL1,492 µM
same,IC50,KARPAS-299,98 µM
same,IC50,JVM-2,> 4000 µM
same,IC50,KYSE-510,112 µM
same,IC50,DBTRG-05MG,311 µM
same,IC50,SK-N-AS,971 µM
same,IC50,NCI-H650,269 µM
same,IC50,TE-12,182 µM
same,IC50,SK-MEL-2,1960 µM
same,IC50,D-542MG,560 µM
same,IC50,DEL,72.3 µM
same,IC50,SH-4,2420 µM
same,IC50,SW837,858 µM
same,IC50,GMS-10,2190 µM
same,IC50,FTC-133,> 4000 µM
same,IC50,LS-1034,2570 µM
same,IC50,COR-L23,1880 µM
same,IC50,NCI-H23,2950 µM
same,IC50,HT-3,853 µM
same,IC50,LU-134-A,> 4000 µM
same,IC50,U-251,215 µM
same,IC50,MZ1-PC,46 µM
same,IC50,TE-11,420 µM
same,IC50,BHT-101,> 4000 µM
same,IC50,MN-60,147 µM
same,IC50,KOSC-2,> 4000 µM
same,IC50,NCI-H2228,42.8 µM
same,IC50,HT-144,177 µM
same,IC50,MZ2-MEL,478 µM
same,IC50,Capan-2,338 µM
same,IC50,KMOE-2,305 µM
same,IC50,LC-2-ad,24.6 µM
same,IC50,IST-MEL1,573 µM
same,IC50,OE33,421 µM
same,IC50,MC116,174 µM
same,IC50,MPP-89,1280 µM
same,IC50,LCLC-103H cell line,880 µM
same,IC50,KGN,62.8 µM
same,IC50,PANC-08-13,1460 µM
same,IC50,SW1710,277 µM
same,IC50,IGROV-1,1390 µM
same,IC50,NCI-H1623,117 µM
same,IC50,SK-MEL-1,2370 µM
same,IC50,HT-29,846 µM
same,IC50,LOX IMVI,344 µM
same,IC50,UO-31,338 µM
same,IC50,KYSE-70 cell line,551 µM
same,IC50,NTERA-2-cl-D1,57.6 µM
same,IC50,HuP-T3,404 µM
CN(C)C/C=C/C(=O)Nc1cc2c(Nc3ccc(F)c(Cl)c3)ncnc2cc1O[C@H]1CCOC1 [AFATINIB],IC50,OAW-42,> 0.5 µM
same,IC50,CAL-62,> 0.5 µM
same,IC50,IST-SL1,> 0.5 µM
same,IC50,KARPAS-299,> 0.5 µM
same,IC50,JVM-2,> 0.5 µM
same,IC50,KYSE-510,> 0.5 µM
same,IC50,DBTRG-05MG,> 0.5 µM
same,IC50,SK-N-AS,> 0.5 µM
same,IC50,NCI-H650,> 0.5 µM
same,IC50,TE-12,> 0.5 µM
same,IC50,SK-MEL-2,> 0.5 µM
same,IC50,D-542MG,> 0.5 µM
same,IC50,DEL,> 0.5 µM
same,IC50,SH-4,> 0.5 µM
same,IC50,SW837,> 0.5 µM
same,IC50,GMS-10,> 0.5 µM
same,IC50,FTC-133,> 0.5 µM
same,IC50,LS-1034,> 0.5 µM
same,IC50,COR-L23,> 0.5 µM
same,IC50,NCI-H23,> 0.5 µM
same,IC50,HT-3,> 0.5 µM
same,IC50,LU-134-A,> 0.5 µM
same,IC50,U-251,> 0.5 µM
same,IC50,MZ1-PC,> 0.5 µM
same,IC50,TE-11,> 0.5 µM
same,IC50,BHT-101,> 0.5 µM
same,IC50,MN-60,> 0.5 µM
same,IC50,KOSC-2,> 0.5 µM
same,IC50,NCI-H2228,> 0.5 µM
same,IC50,HT-144,> 0.5 µM
same,IC50,MZ2-MEL,> 0.5 µM
same,IC50,Capan-2,> 0.5 µM
same,IC50,KMOE-2,> 0.5 µM
same,IC50,LC-2-ad,> 0.5 µM
same,IC50,IST-MEL1,> 0.5 µM
same,IC50,OE33,> 0.5 µM
same,IC50,MC116,> 0.5 µM
same,IC50,MPP-89,> 0.5 µM
same,IC50,LCLC-103H cell line,> 0.5 µM
same,IC50,KGN,> 0.5 µM
same,IC50,PANC-08-13,> 0.5 µM
same,IC50,SW1710,> 0.5 µM
same,IC50,IGROV-1,0.26 µM
same,IC50,NCI-H1623,0.0802 µM
same,IC50,SK-MEL-1,> 0.5 µM
same,IC50,HT-29,> 0.5 µM
same,IC50,LOX IMVI,> 0.5 µM
same,IC50,UO-31,> 0.5 µM
same,IC50,KYSE-70 cell line,> 0.5 µM
same,IC50,NTERA-2-cl-D1,> 0.5 µM
same,IC50,HuP-T3,> 0.5 µM
C=CCNC1=C2C[C@@H](C)C[C@H](OC)[C@H](O)[C@@H](C)/C=C(\C)[C@H](OC(N)=O)[C@@H](OC)/C=C\C=C(/C)C(=O)NC(=CC1=O)C2=O [TANESPIMYCIN],IC50,OAW-42,> 1 µM
same,IC50,CAL-62,0.162 µM
same,IC50,IST-SL1,> 1 µM
same,IC50,KARPAS-299,> 1 µM
same,IC50,JVM-2,> 1 µM
same,IC50,KYSE-510,0.0465 µM
same,IC50,DBTRG-05MG,0.581 µM
same,IC50,SK-N-AS,> 1 µM
same,IC50,NCI-H650,0.177 µM
same,IC50,TE-12,> 1 µM
same,IC50,SK-MEL-2,0.0906 µM
same,IC50,D-542MG,> 1 µM
same,IC50,DEL,0.185 µM
same,IC50,SH-4,0.114 µM
same,IC50,SW837,> 1 µM
same,IC50,GMS-10,0.067 µM
same,IC50,FTC-133,0.165 µM
same,IC50,LS-1034,> 1 µM
same,IC50,COR-L23,0.468 µM
same,IC50,NCI-H23,0.0266 µM
same,IC50,HT-3,0.482 µM
same,IC50,LU-134-A,0.261 µM
same,IC50,U-251,0.105 µM
same,IC50,MZ1-PC,> 1 µM
same,IC50,TE-11,0.08 µM
same,IC50,BHT-101,> 1 µM
same,IC50,MN-60,> 1 µM
same,IC50,KOSC-2,0.177 µM
same,IC50,NCI-H2228,0.354 µM
same,IC50,HT-144,0.0309 µM
same,IC50,MZ2-MEL,0.0655 µM
same,IC50,Capan-2,0.193 µM
same,IC50,LC-2-ad,0.141 µM
same,IC50,IST-MEL1,< 0.00391 µM
same,IC50,OE33,0.851 µM
same,IC50,MC116,> 1 µM
same,IC50,MPP-89,0.141 µM
same,IC50,LCLC-103H cell line,> 1 µM
same,IC50,KGN,> 1 µM
same,IC50,PANC-08-13,0.532 µM
same,IC50,SW1710,0.295 µM
same,IC50,IGROV-1,0.184 µM
same,IC50,NCI-H1623,> 1 µM
same,IC50,SK-MEL-1,> 1 µM
same,IC50,HT-29,0.0692 µM
same,IC50,LOX IMVI,0.0587 µM
same,IC50,UO-31,0.205 µM
same,IC50,KYSE-70 cell line,0.333 µM
same,IC50,NTERA-2-cl-D1,0.328 µM
same,IC50,HuP-T3,0.401 µM
